Reference: patent US7524844B2, “Dipeptidyl peptidase IV inhibitors, process for their preparation and compositions containing them” (Glenmark Pharmaceuticals S.A., priority 2004, dated 2009)
Where a name gives a salt, the structure may show the parent alone.

Molecular target: T1, human recombinant Dipeptidyl peptidase IV enzyme (DPP-IV) (Homo sapiens, UniProt P27487)
T1 construct: purchased R&D Systems Inc. of Minneapolis, Minn
Experiment: in-vitro DPP-IV assay (cleavage of AMC from Gly-Pro-AMC)
Assay type: biochemical
Details: for IC50: human recombinant DPP-IV, Gly-Pro-AMC substrate, 30° C., 30 minutes, read-out: DPP-IV inhibition using human recombinant DPP-IV enzyme, IC50
Experimental: DPP-IV activity was determined by the cleavage rate of 7-amino-4-methyl coumarin (AMC) from the synthetic substrate Glycyl-Prolyl-AMC. In brief, the assay was conducted by adding 10 ng of human recombinant Dipeptidyl peptidase IV enzyme (DPP-IV, available commercially from R&D Systems Inc. of Minneapolis, Minn.) in 50 μl of the assay buffer (25 mM Tris, pH 7.4, 140 mM NaCl, 10 mM KCl, 1% BSA) to 96 well black flat bottom microtiter plates. The reaction was initiated by adding 50 μl of 100 μM substrate Gly-Pro-AMC. The incubation was carried out in the kinetic mode at 30° C. for 30 minutes. Fluorescence was measured using Fluorostar with an excitation filter of 380 nm and emission filter of 460 nm. Test compounds and solvent controls were added as 1 μl additions. A standard curve of free amino methyl coumarin (AMC) was generated using 0-100 μM AMC in the assay buffer. The curve generated, which was linear was used for the interpolation of catalytic activity.
Test compounds dissolved in DMSO at 5-6 concentrations were tested in duplicate along with the solvent control and blank samples. Percent inhibition was calculated at each concentration with respect to the solvent control sample (no test compound added). […]

T1 sequence (P27487 whole entry): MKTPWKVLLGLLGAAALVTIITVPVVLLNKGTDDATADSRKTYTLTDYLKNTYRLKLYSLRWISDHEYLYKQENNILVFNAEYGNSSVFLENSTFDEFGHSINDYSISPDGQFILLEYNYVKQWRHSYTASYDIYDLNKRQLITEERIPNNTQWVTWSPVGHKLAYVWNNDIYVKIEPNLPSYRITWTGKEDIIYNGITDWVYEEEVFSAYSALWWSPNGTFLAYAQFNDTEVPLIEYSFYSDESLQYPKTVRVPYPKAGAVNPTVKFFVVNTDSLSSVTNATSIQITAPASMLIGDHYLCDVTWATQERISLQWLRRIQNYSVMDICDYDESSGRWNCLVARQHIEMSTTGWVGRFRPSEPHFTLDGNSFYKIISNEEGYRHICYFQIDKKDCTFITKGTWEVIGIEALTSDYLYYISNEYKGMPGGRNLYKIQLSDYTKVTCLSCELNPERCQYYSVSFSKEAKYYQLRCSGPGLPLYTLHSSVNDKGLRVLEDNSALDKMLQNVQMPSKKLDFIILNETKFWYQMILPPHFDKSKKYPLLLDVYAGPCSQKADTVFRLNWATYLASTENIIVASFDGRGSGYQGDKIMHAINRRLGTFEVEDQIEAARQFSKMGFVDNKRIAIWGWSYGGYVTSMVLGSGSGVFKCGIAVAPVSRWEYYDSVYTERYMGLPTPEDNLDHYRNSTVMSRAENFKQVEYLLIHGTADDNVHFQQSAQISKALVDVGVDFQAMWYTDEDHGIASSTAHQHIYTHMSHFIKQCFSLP

| SMILES | IC50 | inhibition at 0.3 µM (at 300 nM, printed in the IC50 (nM) column, read-out: DPP-IV inhibition using human recombinant DPP-IV enzyme, percent inhibition) |
| --- | --- | --- |
| N#C[C@@H]1CCCN1C(=O)CN[C@@H]1CC[C@H](Cn2ccnc2)C1 [Example-29, (2S)-1-{2-[(3S,1R)-3-(1H-1-Imidazolylmethyl)cyclopentylamino]acetyl}pyrrolidine-2-carbonitrile] | 11.2 nM | – |
| N#C[C@@H]1C[C@H](F)CN1C(=O)CN[C@@H]1CC[C@H](Cn2cncn2)C1 [Example-44, (2S,4S)-1-{2-1(3S,1R)-3-(1H-1,2,4-Triazol-1-ylmethyl)cyclopentylamino]acetyl}-4-fluoropyrrolidine-2-carbonitrile methanesulfonate] | 3.73 nM | – |
| N#C[C@@H]1CCCN1C(=O)CN[C@@H]1CC[C@H](CNC(=O)Nc2ccc(F)cc2F)C1 [Example-14, N1-(2,4-Difluorophenyl)-N3-((1S,3R)-3-{2-[(2S)-2-cyanopyrrolidin-1-yl]-2-oxoethyl-amino}cyclopentylmethyl)urea] | 26.3 nM | – |
| N#C[C@@H]1CCCN1C(=O)CNC1CCC(Cn2cnc([N+](=O)[O-])c2)C1 (mixture of isomers) [Example-30, (2S)-1-{2-[(3SR,1RS)-3-(1H-4-Nitro-1-imidazolylmethyl)cyclopentylamino]acetyl}-pyrrolidine-2-carbonitrile] | 6.88 nM | – |
| N#C[C@@H]1C[C@H](F)CN1C(=O)CN[C@@H]1CC[C@H](Cn2cncn2)C1 [Example-49, (2S,4S)-1-{2-[(3S,1R)-3-(1H-1,2,4-Triazol-1-ylmethyl)cyclopentylamino]acetyl}-4-fluoropyrrolidine-2-carbonitrile salicylate] | 3.22 nM | – |
| N#C[C@@H]1C[C@H](F)CN1C(=O)CN[C@@H]1CC[C@H](Cn2cncn2)C1 [Example-42, (2S,4S)-1-{2-[(3S,1R)-3-(1H-1,2,4-Triazol-1-ylmethyl)cyclopentylamino]acetyl}-4-fluoropyrrolidine-2-carbonitrile] | 1.61 nM | – |
| N#Cc1ncn(C[C@H]2CC[C@@H](NCC(=O)N3CCC[C@H]3C#N)C2)c1C#N [Example-34, 1-((1S,3R)-3-{2-[(2S)-2-Cyanopyrrolidin-1-yl]-2-oxoethylamino}cyclopentylmethyl)-1H-4,5-imidazoledicarbonitrile] | 9.36 nM | – |
| N#CCC1CCC(NCC(=O)N2CCC[C@H]2C#N)C1 (mixture of isomers) [Example-3, (2S)-1-{2-[(3SR,1RS)-3-Cyanomethylcyclopentylamino]acetyl}-2-pyrrolidine carbonitrile] | 26.8 nM | – |
| N#C[C@@H]1CCCN1C(=O)CNC1CCC(CN2CCN(Cc3ccccc3)CC2)C1 (mixture of isomers) [Example-22, (2S)-1-{2-1[(3SR,1RS)-3-(4-Benzylpiperazinomethyl)cyclopentylamino]acetyl}-pyrrolidin-2-carbonitrile] | 25.4 nM | – |
| N#CC[C@H]1CC[C@@H](NCC(=O)N2CCC[C@H]2C#N)C1 [Example-4, (2S)-1-{2-[(3S,1R)-3-Cyanomethylcyclopentylamino]acetyl}-2-pyrrolidinecarbo-nitrile] | 22.2 nM | – |
| N#CC1CCC(NCC(=O)N2CCC[C@H]2C#N)C1 (mixture of isomers) [Example 2, (2S)-1-{2-[(3SR,1RS)-3-Cyanocyclopentylamino]acetyl}-2-pyrrolidinecarbonitrile] | 286 nM | – |
| N#C[C@@H]1CCCN1C(=O)CNC1CCC(C(=O)NOCc2ccccc2)C1 (mixture of isomers) [Example-12, N1-Benzyloxy-(1SR,3RS)-3-{2-[(2S)-2-cyanopyrrolidin-1-yl]-2-oxoethylamino}-cyclopentane-1-carboxamide] | 145 nM | – |
| N#C[C@@H]1CCCN1C(=O)CN[C@H]1CC[C@@H](Cn2cnnn2)C1 [Example-61, (2S)-1-{2-[(1S,3R)-3-(1H-1,2,3,4-Tetrazol-1-ylmethyl)cyclopentylamino]acetyl}-pyrrolidine-2-carbonitrile] | 11.4 nM | – |
| N#C[C@@H]1CCCN1C(=O)CN[C@H]1CC[C@@H](Cn2cncn2)C1 [Example-40, (2S)-1-{2-[(3R,1S)-3-(1H-1,2,4-Triazol-1-ylmethyl)cyclopentylamino]acetyl}-pyrrolidine-2-carbonitrile] | 12.5 nM | – |
| N#CC[C@@H]1CC[C@H](NCC(=O)N2CCC[C@H]2C#N)C1 [Example-6, (2S)-1-{2-[(3R,1S)-3-Cyanomethylcyclopentylamino]acetyl}-2-pyrrolidinecarbo nitrile] | 21.8 nM | – |
| N#C[C@@H]1CCCN1C(=O)CNC1CCC(CN2CCSC2)C1 (mixture of isomers) [Example-17] | 288 nM | – |
| N#Cc1cn(C[C@H]2CC[C@@H](NCC(=O)N3C[C@@H](F)C[C@H]3C#N)C2)c2ccccc12 [Example-64, 1-((1S,3R)-3-{2-[(2S,4S)-2-Cyano-4-fluoropyrrolidin-1-yl]-2-oxoethylamino}cyclo-pentylmethyl)-1H-3-indolecarbonitrile] | 5.81 nM | – |

| SMILES | IC50 | inhibition at 0.3 µM (at 300 nM, printed in the IC50 (nM) column, read-out: DPP-IV inhibition using human recombinant DPP-IV enzyme, percent inhibition) |
| --- | --- | --- |
| N#C[C@@H]1CCCN1C(=O)CN[C@@H]1CC[C@H](Cn2cncn2)C1 [Example-39, (2S)-1-{2-[(3S,1R)-3-(1H-1,2,4-Triazol-1-ylmethyl)cyclopentylamino]acetyl}-pyrrolidine-2-carbonitrile maleate] | 5.05 nM | – |
| N#C[C@@H]1C[C@H](F)CN1C(=O)CN[C@@H]1CC[C@H](Cc2ccccc2)C1 [Example-15, (2S,4S)-1-{2-[(1R,3R)-3-Benzylcyclopentylamino]acetyl}-4-fluoropyrrolidin-2-yl cyanide] | 6.06 nM | – |
| N#C[C@@H]1CCCN1C(=O)CN[C@@H]1CC[C@H](Cn2cnnn2)C1 [Example-60, (2S)-1-{2-[(3S,1R)-3-(1H-1,2,3,4-Tetrazol-1-ylmethyl)cyclopentylamino]acetyl}-pyrrolidine-2-carbonitrile maleate] | 4.12 nM | – |
| N#C[C@@H]1CCCN1C(=O)CN[C@H]1CC[C@@H](Cn2cc3ccccc3n2)C1 [Example-68, (2S)-1-{2-[(1S,3R)-3-(2H-Indazol-2-ylmethyl)cyclopentylamino]acetyl}pyrrolidin-2-carbonitrile] | 19.2 nM | – |
| N#C[C@@H]1C[C@H](F)CN1C(=O)CN[C@@H]1CC[C@H](Cn2cncn2)C1 [Example-46, (2S,4S)-1-{2-[(3S,1R)-3-(1H-1,2,4-Triazol-1-ylmethyl)cyclopentylamino]acetyl}-4-fluoropyrrolidine-2-carbonitrile succinate] | 4.37 nM | – |
| N#C[C@@H]1C[C@H](F)CN1C(=O)CN[C@@H]1CC[C@@H](Cn2cncn2)C1 [Example-53, (2S,4S)-4-Fluoro-1-{2-[(1R,3R)-3-(1H-1,2,4-Triazol-1-ylmethyl)cyclopentylamino]-acetyl}pyrrolidin-2-carbonitrile] | 5.12 nM | – |
| Cc1ccc(C)n1C[C@H]1CC[C@@H](NCC(=O)N2CCC[C@H]2C#N)C1 [Example-24, (2S)-1-{2-[(3S,1R)-3-(2,5-Dimethyl-1H-1-pyrrolylmethyl)cyclopentylamino}acetyl}-pyrrolidine-2-carbonitrile] | 4.19 nM | – |
| N#C[C@@H]1CCCN1C(=O)CN[C@@H]1C=C[C@H](Cn2cncn2)C1 [Example-35] | 68.3 nM | – |
| O=C(CN[C@H]1CCC(Cn2cncn2)C1)N1CC[C@H](F)C1 (stereo in doubt) [Example-55, 1-[(3S)-3-Fluoropyrrolidin-1-yl]-2-[(1S,3S)-3-(1H-1,2,4-Triazol-1-ylmethyl)cyclo-pentylamino]-1-ethanone] | – | 0% |
| N#Cc1cccn1CC1CCC(NCC(=O)N2C[C@@H](F)C[C@H]2C#N)C1 (mixture of isomers) [Example-27, (2S,4S)-1-{2-[(3SR,1RS)-3-(2-Cyano-1H-pyrrol-1-ylmethyl)cyclopentylamino)-acetyl}-4-fluoropyrrolidine-2-carbonitrile] | 3.44 nM | – |
| N#C[C@@H]1C[C@H](F)CN1C(=O)CN[C@@H]1CC[C@H](Cn2cncn2)C1 [Example-45, (2S,4S)-1-{2-[(3S,1R)-3-(1H-1,2,4-Triazol-1-ylmethyl)cyclopentylamino]acetyl}-4-fluoropyrrolidine-2-carbonitrile oxalate] | 4.63 nM | – |
| N#C[C@@H]1C[C@H](F)CN1C(=O)CNC1CCC(Cn2cncn2)C1 (mixture of isomers) [Example-41, (2S,4S)-1-{2-[(3SR,1RS)-3-(1H-1,2,4-Triazol-1-ylmethyl)cyclopentylamino]acetyl}-4-fluoropyrrolidine-2-carbonitrile] | 4.44 nM | – |
| COc1ccccc1C[C@H]1CC[C@@H](NCC(=O)N2C[C@@H](F)C[C@H]2C#N)C1 [Example-16] | 17.7 nM | – |
| N#C[C@@H]1CCCN1C(=O)CN[C@H]1CC[C@@H](CN2CCN(c3ccccc3)CC2)C1 [Example-23, (2S)-1-{2-[(1S,3R)-3-(4-Phenylpiperazinomethyl)cyclopentylamino]acetyl}-pyrrolidine-2-carbonitrile] | 32 nM | – |
| N#C[C@@H]1CCCN1C(=O)CNC1CCC(C(=O)Nc2ccccc2-c2ccccc2)C1 (mixture of isomers) [Example 75, 1-((1SR,3RS)-3-{2-[(2S)-2-Cyanopyrrolidin-1-yl)-2-oxoethylamino}cyclopentyl-carboxamido)-2-phenylbenzene] | 252 nM | – |
| N#C[C@@H]1CCCN1C(=O)CNC1CCC(C(N)=O)C1 (mixture of isomers) [Example-1, (1SR,3RS)-3-{2-[(2S)-2-Cyanopyrrolidin-1-yl]-2-oxoethylamino}cyclopentane-1-carboxamide] | 163 nM | – |
